Data published in patent US20240293483A1, “PROBIOTIC COMPOSITION FOR THE TREATMENT OF INCREASED INTESTINAL PERMEABILITY” (AB-BIOTICS, S.A., priority 2021, published 2024).

Assays:
[1] = tested on: dextran sulfate sodium (DSS)-induced colitis; details: mice, combined with infliximab; cited from earlier work
HSP27 = HSP27 production by Western blot; format: cell-based; details: Caco-2, 16 h, high-polyP supernatant (MEI) vs low-polyP supernatant (LP); normalized to β-actin
Experimental: The production of HSP27 was studied in Caco-2 intestinal epithelial cells in confluence by Western blot assay as described by Alcántara et al., 2018 with some modifications. Bacterial supernatants were added to the cell cultures and incubation proceeded for 16 h. MEI and LP media were used as controls. To recover HSP27, cells were lysed with […] and boiled for 5 min. Proteins were separated in SDS-PAGE gel and then transferred to a nylon membrane (blot). The blots were incubated with a rabbit polyclonal anti-HSP27 serum or with a mouse monoclonal anti-β-actin antibody (protein used for normalization). After washing, secondary antibodies peroxidase-conjugated anti-rabbit IgG and anti-mouse IgG, respectively, were used. Blots images were captured, and proteins were quantified in an Imagin 680 system.

polyP [2] = assay: PolyP amount in culture supernatants (extracellular); details: 16 h
Experimental: B. longum CECT 7894 was grown in MEI medium and Low Phosphate (LP) medium. The last medium has the same composition as MEI but without the addition of polyP precursors (K2HPO4 and KH2PO4), thus the strain cannot produce high amounts of polyP. After 16 h growth cultures were centrifuged and supernatants collected, filtered, and adjusted to neutral pH. PolyP amounts were measured as described in EXAMPLE 1.

[3] = Stability of the strain in final product (plate counting of cfus, Zone II storage); format: physicochemical; details: 25° C., 60% RH
Experimental: The product was packaged in glass amber bottles and stored under Zone II conditions (25° C., 60% Relative Humidity (RH)). […] Results were expressed in LOG (cfus). Trend line was obtained and predicted cfus at 12 months were estimated. Fold and log reduction comparing cfus between 0 and 12 months were calculated.

Zonula ocludens-1 (ZO1) = assay: Expression of tight junction genes by qPCR: ZO1; format: cell-based; details: Caco-2, 16 h, high-polyP vs low-polyP supernatant
Experimental: (§1) Caco-2 cells were exposed for 16 h to supernatants of B. longum CECT 7894 grown in MEI and LP media. Then, cells were recovered, and RNA extracted with TRIZOL reagent. cDNA was obtained from RNA using SuperScript VILO cDNA synthesis kit. Quantitative PCR (qPCR) reactions were performed with SYBR Green in the conditions indicated by manufacturer. Expression of tight junction proteins Zonula ocludens-1 (ZO1), Junctional adhesion protein-1 (JAM1) and occluding was quantified. Expression of 18S rRNA and GADPH genes were used for normalization.

polyP [4] = assay: Polyphosphate (polyP) production assay: hypochlorite extraction from cells, DAPI fluorescence quantification
Experimental: For polyP production assay, malic enzyme induction (MEI) medium containing (per liter, w/v) 0.5% yeast extract, 0.5% tryptone, 0.4% K2HPO4, 0.5% KH2PO4, 0.02% MgSO4·7H2O, 0.005% MnSO4, 1 ml of Tween 80, 0.05% cysteine, and 0.5% glucose was used (Alcántara et al. 2014). The strains unable to grow in MEI were grown in MRScys. Cultures were inoculated at OD (595 nm) 0.1 and each strain was grown under the conditions indicated above. Growth was monitored by measuring OD for 16 h.
PolyP was isolated from cells by its resistance to hydrolysis with sodium hypochlorite as previously described (Alcántara et al. 2014). Cells were harvested by centrifugation and lysed in 1 ml of 5% sodium hypochlorite with gentle agitation for 45 min at room temperature. Insoluble material was pelleted by centrifugation at 16,000 g for 5 min at 4° C. and washed twice with 1 ml of 1.5 M NaCl plus 1 mM EDTA at 16,000 g for 5 min at 4° C. PolyP was extracted from the pellets with two consecutive washes with 1 ml of water and a centrifugation step at 16,000 g for 5 min at 4° C. between them. PolyP in the pooled water extracts was precipitated by adding 0.1 M NaCl and 1 volume of ethanol, followed by incubation on ice for 1 h. After centrifugation at 16,000 g for 10 min, the polyP pellet was resuspended in 50 μL of water.
A standard curve relating phosphate amount to fluorescence intensity was built to quantify the extracted polyP from the strains. As a first step, serial dilutions of a sample of polyP isolated from the polyphosphate-producer control strain Lactiplantibacillus plantarum strain WCFS1 (Alcántara et al. 2014) were prepared. Second, the dilutions were hydrolyzed with a volume of 2 M HCl, incubated at 95° C. for 15 min to release phosphate and then neutralized by adding […] of 2 M NaOH. Third, the released phosphate from each dilution was quantified with BIOMOL Green Kit (Enzo Life Sciences) as recommended by the manufacturer. In parallel, the released phosphate from each dilution was dyed using 4′,6-diamidino-2-phenylindole (DAPI) at a final concentration of 10 μM in 50 mM Tris-HCl pH 7.5, 50 mM NaCl buffer and fluorescence was measured with an excitation wavelength of 415 nm and emission at 550 nm in a fluorimeter. Finally, a standard curve was built with phosphate values and the corresponding fluorescence values obtained.
Once the standard curve is obtained, polyP amounts from the samples can be quantified according to fluorescence values, without the need of using BIOMOL Green kit. Therefore, the quantification of polyP from the strain samples was indirectly measured by DAPI fluorescence using the standard curve. Firstly, the extracted polyP was measured by fluorescence using DAPI at a final concentration of 10 μM in 50 mM Tris-HCl pH 7.5, 50 mM NaCl buffer with an excitation wavelength of 415 nm and emission at 550 nm in a fluorimeter. Then, the amount of polyP was calculated as nmol of phosphate by means of the standard curve. At least three biological replicates were performed.
B. longum CECT 7894 was grown in medium MEI without glucose supplemented with i) breast milk (1% v/v); ii) LNT (1% w/v); iii) polyamines, in quantities found in breast milk: 70.0, 424.2 and 610.0 […] of putrescine, spermidine and spermine, respectively, and glucose (0.5% w/v); and iv) glucose (0.5% w/v) as positive control. Growth (OD550) and polyP production were determined after 6 and 16 h of incubation.

[5] = tested on: Junctional adhesion protein-1 (JAM1); assay: Expression of tight junction genes by qPCR: JAM1; format: cell-based; details: Caco-2, 16 h, high-polyP vs low-polyP supernatant
Experimental: as §1

Occludin = assay: Expression of tight junction genes by qPCR: occludin; format: cell-based; details: Caco-2, 16 h, high-polyP vs low-polyP supernatant
Experimental: as §1

Caco-2 cells monolayer = assay: Barrier integrity (TEER) and permeability (Papp of Lucifer Yellow) of Caco-2 monolayer; format: cell-based; details: Caco-2, 72 h apical exposure to high-polyP supernatant (MEI culture) vs low-polyP supernatant and controls
Experimental: Integrity of Caco-2 cells monolayer was evaluated by measuring transepithelial electrical resistance (TEER) and permeability by the apparent permeability coefficients (Papp) of the paracellular transport marker Lucifer Yellow.
Caco-2 cells were seed in porous membrane inserts with apical (upper) and basolateral (lower) compartments. Medium Essential Medium Eagle (MEM) was added to both compartments. Cells were treated with supernatants of B. longum CECT 7894 grown in MEI and LP media. Additional cells were treated with MEM, non-fermented MEI and LP media and used as controls.
After 72 h of treatment, TEER and permeability were determined. TEER was measured with a Millicell®-ERS voltammeter. For the permeability assay, Lucifer Yellow was added to the apical compartment. At 15, 30, 45, 60, 90 and 120 min, aliquots were taken from the basolateral compartment and the fluorescence of the Lucifer Yellow transported was measured with a fluorescence microplate reader at excitation/emission wavelengths of 485/520 nm.

[6] = tested on: Caco-2 intestinal epithelial cells; assay: Adhesion to the intestinal epithelium in vitro; format: cell-based; details: Caco-2 monolayers, MOI 1:5, 1 h at 37° C., % of LOG cfu/mL
Experimental: Adhesion to the intestinal epithelium was studied in vitro using Caco-2 intestinal epithelial cells. Bacterial suspensions were added to Caco-2 monolayers (Multiplicity of infection (MOI) 1:5 cells to probiotic) and to wells without Caco-2 cells as controls. After 1 h of incubation at 37° C., medium was removed, cells were detached, and suspensions recovered. Bacteria were enumerated in the obtained suspension by serial dilutions and plate count. Bacteria in the medium of the control wells were also quantified. B. longum subsp. longum ATCC 15707 was used as quality control with a known adhesion percentage of 47-55.

## Bifidobacterium longum subsp. longum KABP-042 (CECT 7894)
[1]
  effect on efficacy of infliximab in DSS-induced colitis: improved the efficacy of infliximab
HSP27
  production of HSP27: significantly higher production of HSP27
polyP [2]; high phosphate (MEI medium)
  PolyP amount in supernatant, MEI medium: 2.24 nmol
polyP [2]; low phosphate (LP medium)
  PolyP amount in supernatant, LP medium: 0.22 nmol
[3]; final product in sunflower oil, trend line from 0-6 months
  LOG (cfus) estimated at 12 months: 9.01 LOG (cfus)
[3]; final product, 0 vs 12 months
  LOG loss over 12 months: ~0.5 LOG
Zonula ocludens-1 (ZO1)
  expression of tight junction protein ZO1: induced
polyP [4]; 6 h
  times more polyP than B. scardovii BAA-773: 140 times
polyP [4]; 6 h values (12.7 vs 230.9 nmol)
  times more polyP than L. plantarum WCFS1: 18 times
polyP [4]; MEI + polyamines (putrescine, spermidine, spermine) + glucose 0.5%, 6 h
  PolyP 6 h, Polyamines: 111.0 nmol
polyP [4]; MEI + polyamines + glucose 0.5%, 16 h
  PolyP 16 h, Polyamines: 48.6 nmol
polyP [4]; MEI or MRScys, inoculated at OD 0.1, 6 h of growth, nmol of phosphate
  PolyP 6 h: 230.9 nmol
polyP [4]; MEI or MRScys, inoculated at OD 0.1, 16 h of growth, nmol of phosphate
  PolyP 16 h: 258.3 nmol
polyP [4]; MEI with glucose 0.5%, 6 h
  PolyP 6 h, Control (glucose): 110.2 nmol
polyP [4]; MEI with glucose 0.5%, 16 h
  PolyP 16 h, Control (glucose): 70.2 nmol
polyP [4]; MEI without glucose + LNT 1% w/v, 6 h
  PolyP 6 h, LNT: 117.0 nmol
polyP [4]; MEI without glucose + LNT 1% w/v, 16 h
  PolyP 16 h, LNT: 145.0 nmol
polyP [4]; MEI without glucose + breast milk 1% v/v, 6 h
  PolyP 6 h, Breast milk: 18.5 nmol
polyP [4]; MEI without glucose + breast milk 1% v/v, 16 h
  PolyP 16 h, Breast milk: 2.0 nmol
[5]
  expression of tight junction protein JAM1: induced
Occludin
  expression of tight junction protein Occludin: induced
Caco-2 cells monolayer
  transepithelial electrical resistance (TEER): higher TEER
[6]
  Adhesion to intestinal epithelium (%): 70.8%
[6]; listed as B. longum subsp. longum KABP042 (CECT 7894)
  Adhesion to intestinal epithelium (%): 70.8%
